Drawing on ChEMBL document CHEMBL5344406, “1,2,3-Triazole-containing hybrids with potential antibacterial activity against ESKAPE pathogens” (2022), this text covers MIC and Activity for ten compounds.

Values after ≈ are worked out from the molar mass of the structure shown.

Holding throughout (type): functional
The subject of assay [1] is Escherichia coli. Nature of the assay: Antibacterial activity against multidrug-resistant Escherichia coli assessed as bacterial growth inhibition incubated for 24 hrs by […] method. For orientation: A growth-free zone around the sample is the usual read-out of agar diffusion tests.
Assay [2] relates to Staphylococcus aureus. The assay is described as follows: Antibacterial activity against Staphylococcus aureus clinical isolate assessed as bacterial growth inhibition by disk diffusion method.
Assay [3] relates to Escherichia coli. Nature of the assay: Antibacterial activity against Escherichia coli clinical isolate assessed as bacterial growth inhibition by disk diffusion method.
Assay [4] has as its system Klebsiella pneumoniae. Nature of the assay: Antibacterial activity against Klebsiella pneumoniae clinical isolate assessed as bacterial growth inhibition by disk diffusion method.
Another assay concerns Pseudomonas putida. The assay is described as follows: Antibacterial activity against Pseudomonas putida clinical isolate assessed as bacterial growth inhibition by disk diffusion method.
Another assay concerns Serratia marcescens. The assay is described as follows: Antibacterial activity against Serratia marcescens clinical isolate assessed as bacterial growth inhibition by disk diffusion method.
The subject of assay [5] is Staphylococcus aureus. The assay is described as follows: Antibacterial activity against Staphylococcus aureus clinical isolate assessed as bacterial growth inhibition incubated for 24 hrs by disk diffusion method.
In assay [6] the test system is Escherichia coli. Nature of the assay: Antibacterial activity against Escherichia coli clinical isolate assessed as bacterial growth inhibition incubated for 24 hrs by disk diffusion method.
Assay [7] has as its system Pseudomonas aeruginosa. Nature of the assay: Antibacterial activity against Pseudomonas aeruginosa assessed as bacterial growth inhibition incubated for 24 hrs by spectrophotometry.
The test system of assay [8] is Escherichia coli. Nature of the assay: Antibacterial activity against Escherichia coli assessed as bacterial growth inhibition incubated for 24 hrs by spectrophotometry.
For assay [9], the system named is Staphylococcus aureus. Nature of the assay: Antibacterial activity against Staphylococcus aureus assessed as bacterial growth inhibition incubated for 24 hrs by spectrophotometry.
Assay [10] has as its system Bacillus subtilis. Nature of the assay: Antibacterial activity against Bacillus subtilis assessed as bacterial growth inhibition incubated for 24 hrs by spectrophotometry.
For assay [11], the system named is Staphylococcus aureus. The assay is described as follows: Antibacterial activity against Staphylococcus aureus assessed as bacterial growth inhibition by broth microdilution method. For orientation: In broth dilution the organism is exposed to a series of concentrations in liquid medium.
Assay [12] has as its system Escherichia coli. The assay is described as follows: Antibacterial activity against Escherichia coli assessed as bacterial growth inhibition by broth microdilution method.
Assay [13] has as its system Klebsiella pneumoniae. The assay is described as follows: Antibacterial activity against Klebsiella pneumoniae assessed as bacterial growth inhibition by broth microdilution method.
Assay [14] has as its system Bacillus subtilis. The assay is described as follows: Antibacterial activity against Bacillus subtilis assessed as bacterial growth inhibition by broth microdilution method.
Assay [15] relates to Staphylococcus aureus. Nature of the assay: Antibacterial activity against Staphylococcus aureus ATCC 43300 assessed as bacterial growth inhibition measured for 5 to 20 mins by broth dilution method. The following applies: time 5-20 min.
In assay [16] the test system is Pseudomonas aeruginosa. Nature of the assay: Antibacterial activity against Pseudomonas aeruginosa ATCC 10145 assessed as bacterial growth inhibition measured for 5 to 20 mins by broth dilution method. The settings on record: time 5-20 min.
The test system of assay [17] is Pseudomonas aeruginosa. The assay is described as follows: Antibacterial activity against Pseudomonas aeruginosa assessed as bacterial growth inhibition by broth microdilution method.
The subject of assay [18] is Bacillus subtilis. Nature of the assay: Antibacterial activity against Bacillus subtilis ATCC 6633 assessed as bacterial growth inhibition incubated for 18 to 24 hrs by turbidimetry. The settings on record: time 18-24 hrs.
In assay [19] the test system is Pseudomonas aeruginosa. The assay is described as follows: Antibacterial activity against Pseudomonas aeruginosa assessed as bacterial growth inhibition.
For assay [20], the system named is Escherichia coli. The assay is described as follows: Antibacterial activity against Escherichia coli assessed as bacterial growth inhibition by serial dilution method.
The test system of assay [21] is Bacillus subtilis. The assay is described as follows: Antibacterial activity against Bacillus subtilis MTCC 441 assessed as bacterial growth inhibition incubated for 24 hrs by serial dilution method.
Assay [22] concerns Klebsiella pneumoniae. The assay is described as follows: Antibacterial activity against Klebsiella pneumoniae NCDC 138 assessed as bacterial growth inhibition incubated for 24 hrs by serial dilution method.
Assay [23] has as its system Bacillus subtilis. The assay is described as follows: Antibacterial activity against Bacillus subtilis assessed as bacterial growth inhibition incubated for 24 hrs by serial dilution method.
For another assay, the system named is Salmonella enterica. Nature of the assay: Antibacterial activity against Salmonella enterica assessed as bacterial growth inhibition incubated for 24 hrs by serial dilution method.
For assay [24], the system named is Staphylococcus aureus. The assay is described as follows: Antibacterial activity against Staphylococcus aureus MTCC 737 assessed as bacterial growth inhibition by serial dilution method.
The test system of assay [25] is Escherichia coli. The assay is described as follows: Antibacterial activity against Escherichia coli MTCC 1687 assessed as bacterial growth inhibition by serial dilution method.
The subject of assay [26] is Staphylococcus aureus. Nature of the assay: Antibacterial activity against Staphylococcus aureus ATCC 25923 assessed as bacterial growth inhibition by broth microdilution method.
For assay [27], the system named is Escherichia coli. Nature of the assay: Antibacterial activity against Escherichia coli ATCC 25922 assessed as bacterial growth inhibition by broth microdilution method.
In assay [28] the test system is Staphylococcus aureus. The assay is described as follows: Antibacterial activity against Staphylococcus aureus assessed as bacterial growth inhibition by agar well diffusion method.
Assay [29] relates to Bacillus subtilis. The assay is described as follows: Antibacterial activity against Bacillus subtilis assessed as bacterial growth inhibition by agar well diffusion method.
Assay [30] relates to Bacillus subtilis. The assay is described as follows: Antibacterial activity against Bacillus subtilis assessed as bacterial growth inhibition by serial dilution method.
The subject of assay [31] is Staphylococcus epidermidis. Nature of the assay: Antibacterial activity against Staphylococcus epidermidis assessed as bacterial growth inhibition by serial dilution method.
In assay [32] the test system is Escherichia coli. Nature of the assay: Antibacterial activity against Escherichia coli MTCC 443 assessed as bacterial growth inhibition by broth microdilution method.
Assay [33] has as its system Pseudomonas aeruginosa. The assay is described as follows: Antibacterial activity against Pseudomonas aeruginosa MTCC 1688 assessed as bacterial growth inhibition by broth microdilution method.
The test system of a further assay is Streptococcus pyogenes. Nature of the assay: Antibacterial activity against Streptococcus pyogenes MTCC 442 assessed as bacterial growth inhibition by broth microdilution method.
Assay [34] has as its system Staphylococcus aureus. The assay is described as follows: Antibacterial activity against Staphylococcus aureus MTCC 96 assessed as bacterial growth inhibition by broth microdilution method.
Assay [35] relates to Pseudomonas aeruginosa. The assay is described as follows: Antibacterial activity against Pseudomonas aeruginosa assessed as bacterial growth inhibition by broth dilution method.
In assay [36] the test system is Klebsiella pneumoniae. Nature of the assay: Antibacterial activity against Klebsiella pneumoniae assessed as bacterial growth inhibition by broth dilution method.
For assay [37], the system named is Staphylococcus aureus. The assay is described as follows: Antibacterial activity against methicillin-resistant Staphylococcus aureus ATCC 43300 infected in neutropenic mouse model of thigh infection assessed as reduction in bacterial load at 20 mg/kg, iv measured after 24 hrs by colony counting method.

As a reminder, the MIC is the lowest concentration found to suppress growth. Consider `Clc1cccc(Cn2cc(COc3ccc(-c4nc5ccccc5s4)cc3)nn2)c1`, for which the minimal inhibitory concentration (MIC) with Escherichia coli [1] was 8.02 µg/mL (≈ 18.5 µM).
For the compound `Cc1ccc2c(c1)c(=O)c1ccccc1n2Cc1cn(CC(=O)Nc2ccccc2C)nn1`, the MIC in the assay on Staphylococcus aureus [2], in the assay with Escherichia coli [3], with Klebsiella pneumoniae [4], with Pseudomonas putida and in the assay with Serratia marcescens was 12.3 µg/mL (≈ 28.1 µM) in each case.
For the compound `Cc1ccccc1-n1cc(Cn2c3ccccc3c(=O)c3ccccc32)nn1`, the minimal inhibitory concentration (MIC) in the assay with Staphylococcus aureus [5] and with Escherichia coli [6] was 10.1 µg/mL (≈ 27.6 µM) throughout.
Consider `Cc1c(C(=O)/C=C/c2ccc(Cl)cc2)nnn1-c1ccc(Cl)c(Cl)c1`, for which the MIC with Pseudomonas aeruginosa [7], with Escherichia coli [8], in the assay on Staphylococcus aureus [9] and in the assay on Bacillus subtilis [10] was 1.3 µg/mL (≈ 3.31 µM) each time.
Turning to `CC1(C)S[C@@H]2[C@H](NC(=O)[C@H](N)c3ccc(O)cc3)C(=O)N2[C@H]1C(=O)O` [AMOXICILLIN], the MIC with Staphylococcus aureus [11], in the assay with Escherichia coli [12] and in the assay on Klebsiella pneumoniae [13] was 25 µg/mL (≈ 68.4 µM) each time.
As for `CC1(C)S[C@@H]2[C@H](NC(=O)[C@H](N)c3ccccc3)C(=O)N2[C@H]1C(=O)O` [AMPICILLIN], the MIC with Staphylococcus aureus [11] was found to be 4 µg/mL (≈ 11.4 µM); in the assay with Bacillus subtilis [14], 4 µg/mL (≈ 11.4 µM); in the assay on Escherichia coli [12] it was 4 µg/mL (≈ 11.4 µM); in the assay on Staphylococcus aureus [15], 2.5 µg/mL (≈ 7.15 µM); with Pseudomonas aeruginosa [16] it was 5 µg/mL (≈ 14.3 µM); with Pseudomonas aeruginosa [17], 1 µg/mL (≈ 2.86 µM).
On to `O=C(O)c1cn(C2CC2)c2cc(N3CCNCC3)c(F)cc2c1=O` [CIPROFLOXACIN], for which the MIC in the assay with Bacillus subtilis [18] came to 0.125 µg/mL (≈ 0.377 µM); with Pseudomonas aeruginosa [19] it was 1.56 µg/mL (≈ 4.71 µM); with Escherichia coli [20] it was 25 µg/mL (≈ 75.4 µM); in the assay on Bacillus subtilis [21], 6.25 µg/mL (≈ 18.9 µM); in the assay on Klebsiella pneumoniae [22] it was 6.25 µg/mL (≈ 18.9 µM); with Bacillus subtilis [23], 6.25 µg/mL (≈ 18.9 µM). The minimal inhibitory concentration (MIC) is 6.25 µg/mL (≈ 18.9 µM) in the assay on Salmonella enterica; 12.5 µg/mL (≈ 37.7 µM) in the assay on Staphylococcus aureus [24]; 12.5 µg/mL (≈ 37.7 µM) in the assay on Escherichia coli [25]; 12 µg/mL (≈ 36.2 µM) in the assay on Staphylococcus aureus [26]; 11 µg/mL (≈ 33.2 µM) with Escherichia coli [27]; 0.5 µg/mL (≈ 1.51 µM) in the assay on Staphylococcus aureus [28]. Besides, the MIC with Bacillus subtilis [29] is 0.5 µg/mL (≈ 1.51 µM); in the assay on Bacillus subtilis [30], 25 µg/mL (≈ 75.4 µM); in assay [31], 25 µg/mL (≈ 75.4 µM); with Escherichia coli [32] it was 24.9 µg/mL (≈ 75.1 µM); in the assay with Pseudomonas aeruginosa [33], 24.9 µg/mL (≈ 75.1 µM); in the assay on Streptococcus pyogenes, 24.9 µg/mL (≈ 75.1 µM). Also, the MIC in the assay on Staphylococcus aureus [34] amounted to 24.9 µg/mL (≈ 75.1 µM).
`C[C@H]1COc2c(N3CCN(C)CC3)c(F)cc3c(=O)c(C(=O)O)cn1c23` [LEVOFLOXACIN ANHYDROUS]: the MIC in the assay on Pseudomonas aeruginosa [7], in the assay on Escherichia coli [8], in the assay with Staphylococcus aureus [9] and with Bacillus subtilis [10] was 33.6 µg/mL (≈ 93 µM) each time.
For the compound `CC1(C)S[C@@H]2[C@H](NC(=O)Cc3ccccc3)C(=O)N2[C@H]1C(=O)O` [PENICILLIN G], the MIC stood at 18.8 µg/mL (≈ 56.1 µM) with Pseudomonas aeruginosa [35] and 9.37 µg/mL (≈ 28 µM) in the assay on Klebsiella pneumoniae [36].
As to `C=C[C@]1(C)C[C@@H](OC(=O)CSCCN(CC)CC)[C@]2(C)[C@H](C)CC[C@]3(CCC(=O)[C@H]32)[C@@H](C)[C@@H]1O` [TIAMULIN], the Activity in the assay on Staphylococcus aureus [37] is recorded as -0.57 log10CFU/ml.
